Consider 10 compounds from patent publication US20140057284A1, “PHOTOLUMINESCENT MOLECULAR COMPLEX AND METHOD FOR DETERMINING OF THE CONCENTRATION OF SAID MOLECULAR COMPLEX” (priority 2011, published 2014).

One assay relates to PKAc in living C9H6 cells. Put plainly: Monitoring of kinase activity in living cells loaded with ARC-1139. It counts as cell-based. The conditions noted are these: H89 100 μM added after Forskolin. As to the method: CHO, C9H6 and HEK cells were cultured in F12 Nutrient Mixture supplemented with 10% fetal bovine serum, 2 mM L-glutamine, 100 U/ml penicillin and 100 μg/ml streptomycin at 37° C. in humidified atmosphere containing 5% CO2. In case of C9H6 cells, 300 μg/ml of Zeocine™ and 800 μg/ml of Geneticin® were additionally introduced to the nutrient mixture. Cells were seeded to 96-well plates (for plate reader experiments) and grown to 60%-80% confluency. The medium was replaced with fresh serum-free medium containing the luminescent probe ARC-1139 (10 μM) and incubated for 1 hour at 37° C. Subsequently, the cells were washed three times with PBS and analyzed on a PheraStar platereader with TRF optic modules [ex. 337(50) nm, em. 675(50) and 620(20) nm] using the time-resolved fluorescence measurement mode. Forskolin (final concentration of 25 μM) and H89 (final concentration of 100 μM) were added to the cells during the measurement (after 3 min and 7 min from the start of data acquisition, respectively)
For the compound `O=S(=O)(NCCNC/C=C/c1ccc(Br)cc1)c1cccc2cnccc12` [H89], the “luminescence from live cells loaded with ARC-1139 after Forskolin” value is on record as “signal decreased”.

For another assay, the target named is catalytic subunit of cAMP-dependent protein kinase (PKAc) (Homo sapiens, UniProt P17612). Kind of assay: Binding affinity to PKAc. The conditions noted are these: PKAc and some other PKs of the AGC group; in words.
On to `N=C(N)NCCC[C@@H](NC(=O)CCCCCNC(=O)c1ccc(-c2ccnc(N)n2)s1)C(=O)NCCCCCC(=O)N[C@H](CCCNC(=N)N)C(=O)N[C@H](CCCNC(=N)N)C(=O)N[C@H](CCCNC(=N)N)C(=O)N[C@H](CCCNC(=N)N)C(=O)N[C@H](CCCNC(=N)N)C(=O)N[C@H](CCCNC(=N)N)C(=O)N[C@H](CCCCN)C(N)=O` [ARC-668], for which the “affinity of binding to PKAc” value is listed as “subnanomolar or low nanomolar”. Consider `N=C(N)NCCC[C@@H](NC(=O)CCCCCNC(=O)c1ccc(-c2ccnc(N)n2)s1)C(=O)NCCCCCC(=O)N[C@H](CCCNC(=N)N)C(=O)N[C@H](CCCNC(=N)N)C(=O)N[C@H](CCCNC(=N)N)C(=O)N[C@H](CCCNC(=N)N)C(=O)N[C@H](CCCNC(=N)N)C(=O)N[C@H](CCCNC(=N)N)C(=O)N[C@H](CCCCNc1ccc([N+](=O)[O-])c2nonc12)C(N)=O` [ARC-676], for which the “affinity of binding to PKAc” value was “subnanomolar or low nanomolar”. The same measure, in the same setting: as for `N=C(N)NCCC[C@@H](NC(=O)[C@@H](CCCNC(=N)N)NC(=O)CCCCCNC(=O)[C@@H](CCCCN)NC(=O)CCCCCNC(=O)c1ccc(-c2ccncc2)s1)C(N)=O` [ARC-1121], the entry is “subnanomolar or low nanomolar”; as for `Cc1nccc(-c2ccc(C(=O)NCCCCCC(=O)N[C@H](CCCNC(=N)N)C(=O)NCCCCCC(=O)N[C@H](CCCNC(=N)N)C(=O)N[C@H](CCCNC(=N)N)C(=O)N[C@H](CCCNC(=N)N)C(=O)N[C@H](CCCNC(=N)N)C(=O)N[C@H](CCCNC(=N)N)C(=O)N[C@H](CCCNC(=N)N)C(=O)N[C@H](CCCCN)C(N)=O)s2)n1` [ARC-1123], “subnanomolar or low nanomolar”. With `N=C(N)NCCC[C@@H](NC(=O)CCCCCNC(=O)c1ccc(-c2ccncn2)s1)C(=O)NCCCCCC(=O)N[C@H](CCCNC(=N)N)C(=O)N[C@H](CCCNC(=N)N)C(=O)N[C@H](CCCNC(=N)N)C(=O)N[C@H](CCCNC(=N)N)C(=O)N[C@H](CCCNC(=N)N)C(=O)N[C@H](CCCNC(=N)N)C(=O)N[C@H](CCCCN)C(N)=O` [ARC-1129], the “affinity of binding to PKAc” value was “subnanomolar or low nanomolar”. Regarding `N=C(N)NCCC[C@@H](NC(=O)CCCCCNC(=O)c1ccc(-c2ncnc3[nH]cnc23)s1)C(=O)NCCCCCC(=O)N[C@H](CCCNC(=N)N)C(=O)N[C@H](CCCNC(=N)N)C(=O)N[C@H](CCCNC(=N)N)C(=O)N[C@H](CCCNC(=N)N)C(=O)N[C@H](CCCNC(=N)N)C(=O)N[C@H](CCCNC(=N)N)C(=O)N[C@H](CCCCN)C(N)=O` [ARC-1132], the “affinity of binding to PKAc” value was “subnanomolar or low nanomolar”.

For the compound `N=C(N)NCCC[C@@H](NC(=O)CCCCCNC(=O)c1ccc(-c2ncnc3[nH]ccc23)s1)C(=O)NCCCCCC(=O)N[C@H](CCCNC(=N)N)C(=O)N[C@H](CCCNC(=N)N)C(=O)N[C@H](CCCNC(=N)N)C(=O)N[C@H](CCCNC(=N)N)C(=O)N[C@H](CCCNC(=N)N)C(=O)N[C@H](CCCNC(=N)N)C(=O)N[C@H](CCCCN)C(N)=O` [ARC-1135], the “affinity of binding to PKAc” value is on record as “subnanomolar or low nanomolar”. Turning to `N=C(N)NCCC[C@@H](NC(=O)CCCCCNC(=O)c1ccc(-c2ccnc(N)n2)[se]1)C(=O)NCCCCCC(=O)N[C@H](CCCNC(=N)N)C(=O)N[C@H](CCCNC(=N)N)C(=O)N[C@H](CCCNC(=N)N)C(=O)N[C@H](CCCNC(=N)N)C(=O)N[C@H](CCCNC(=N)N)C(=O)N[C@H](CCCNC(=N)N)C(=O)N[C@H](CCCCN)C(N)=O` [ARC-1138], the “affinity of binding to PKAc” value is given as “subnanomolar or low nanomolar”.

The next assay addresses PKAc (Homo sapiens, UniProt P17612). Put plainly: Measurement of dissociation kinetics of inhibitor-kinase complexes with ARC-1063. It counts as binding. The conditions noted are these: inhibitor 5-10 nM, PKAc 10 nM, 27° C., ARC-1063 100-300 nM. How it is done: Measurements of dissociation kinetics of non-labeled inhibitors from the inhibitor-kinase complexes (residence time) were carried out by mixing the solution of the examined inhibitor (5-10 nM) with PKAc (10 nM), and incubation of the solution for 15 min at 27° C., followed by addition of a high concentration of the luminescent probe ARC-1063 (final concentration of 100-300 nM), and measurement of the luminescence signal at 5 s time intervals (FIG. 10). The collected data were fitted to the first-order kinetic model yielding the dissociation rate constants for the examined inhibitors.
On to `CN[C@@H]1C[C@H]2O[C@@](C)([C@@H]1OC)n1c3ccccc3c3c4c(c5c6ccccc6n2c5c31)C(=O)NC4` [staurosporine], for which the “Dissociation half-lives of PKAc complexes” value was determined as 12 s.
